Tests used:
Fusarium 18270 = assay: MFC determination (subculture on Sabouraud Dextrose Agar); assay type: cell-based; conditions: Fusarium 18270
From the text: (§1) The in-vitro evaluation of the antifungal activity of the compounds can be performed by determining the minimum inhibitory concentration (MIC) as shown in Table 1 which is the concentration of the test compound in Rosewell Park Memorial Institute (RPMI) 1640 liquid medium buffered with 3-(Morpholino)propanesulphonic acid (MOPS) to pH 7, at which there is significant inhibition of the particular fungi. In practice the National Committee for Clinical Laboratory Standard (NCCLS) M27A document for Candida and Cryptococcus and M38P for Aspergillus was used to determine the MIC against yeast and filamentous fungi with suitable modifications for dermatophytes to other filamentous fungi. Three quality control strains were included each time the MIC were determined and readings recorded only when the Quality Control results fell into the acceptable range. After MIC results had been recorded, 100 μl from each of the well showing no growth was spread over Sabouraud Dextrose Agar (SDA) to determine the minimum fungicidal concentration (MFC) as shown in Table 2.

Fusarium (Ceylon) = assay: as above; assay type: cell-based
From the text: as §1

Rhizopus (Ceylon) [1] = assay: as above; assay type: cell-based
From the text: as §1

A flavus P2 - 1045 [2] = assay: as above; assay type: cell-based
From the text: as §1

A niger P1 - 1046 [3] = assay: as above; assay type: cell-based
From the text: as §1

C krusei 6258 [4] = assay: as above; assay type: cell-based
From the text: as §1

Penicillium H - 1048 [5] = assay: as above; assay type: cell-based
From the text: as §1

Penicillium I - 1049 [6] = assay: as above; assay type: cell-based
From the text: as §1

Penicillium 1641 = assay: as above; assay type: cell-based
From the text: as §1

Alternaria 1051 [7] = assay: as above; assay type: cell-based
From the text: as §1

A flavus P3 - 1041 [8] = assay: as above; assay type: cell-based
From the text: as §1

Mucor (Ceylon) = assay: as above; assay type: cell-based
From the text: as §1

A flavus E3 - 1044 [9] = assay: as above; assay type: cell-based
From the text: as §1

A flavus E4 - 1042 [10] = assay: as above; assay type: cell-based
From the text: as §1

A niger E5 - 1047 [11] = assay: as above; assay type: cell-based
From the text: as §1

Fusarium 29600 = assay: as above; assay type: cell-based; conditions: Fusarium 29600
From the text: as §1

Rhizopus 1052 [12] = assay: as above; assay type: cell-based
From the text: as §1

C parapsilosis 22019 [13] = assay: as above; assay type: cell-based
From the text: as §1

Penicillium 31620 = assay: as above; assay type: cell-based
From the text: as §1

Penicillium 2548 [14] = assay: as above; assay type: cell-based
From the text: as §1

Penicillium 2306 = assay: as above; assay type: cell-based
From the text: as §1

Penicillium 191 [15] = assay: as above; assay type: cell-based
From the text: as §1

C albicans Y01.19 = assay: MIC determination (NCCLS broth method); assay type: cell-based, Candida albicans
From the text: as §1

C albicans A-26 = assay: MIC determination (NCCLS broth method); assay type: cell-based, Candida albicans
From the text: as §1

Rhizopus (Ceylon) [16] = assay: MIC determination (NCCLS broth method); assay type: cell-based
From the text: as §1

A flavus P2 - 1045 [17] = assay: MIC determination (NCCLS broth method); assay type: cell-based
From the text: as §1

Penicillium 3162 = assay: MIC determination (NCCLS broth method); assay type: cell-based
From the text: as §1

C tropicalis 750 = assay: MIC determination (NCCLS broth method); assay type: cell-based
From the text: as §1

A niger P1 - 1046 [18] = assay: MIC determination (NCCLS broth method); assay type: cell-based
From the text: as §1

C krusei 6258 [19] = assay: MIC determination (NCCLS broth method); assay type: cell-based
From the text: as §1

Penicillium H - 1048 [20] = assay: MIC determination (NCCLS broth method); assay type: cell-based
From the text: as §1

Penicillium I - 1049 [21] = assay: MIC determination (NCCLS broth method); assay type: cell-based
From the text: as §1

Alternaria 1051 [22] = assay: MIC determination (NCCLS broth method); assay type: cell-based
From the text: as §1

C krusei 766.1 = assay: MIC determination (NCCLS broth method); assay type: cell-based
From the text: as §1

A flavus P3 - 1041 [23] = assay: MIC determination (NCCLS broth method); assay type: cell-based
From the text: as §1

A flavus E3 - 1044 [24] = assay: MIC determination (NCCLS broth method); assay type: cell-based
From the text: as §1

A flavus E2 - 1043 = assay: MIC determination (NCCLS broth method); assay type: cell-based
From the text: as §1

A flavus E4 - 1042 [25] = assay: MIC determination (NCCLS broth method); assay type: cell-based
From the text: as §1

Fusarium 1050 = assay: MIC determination (NCCLS broth method); assay type: cell-based
From the text: as §1

C glabrata 90030 = assay: MIC determination (NCCLS broth method); assay type: cell-based
From the text: as §1

A niger E5 - 1047 [26] = assay: MIC determination (NCCLS broth method); assay type: cell-based
From the text: as §1

H capsulatum = assay: MIC determination (NCCLS broth method); assay type: cell-based
From the text: as §1

Fusarium 1827C = assay: MIC determination (NCCLS broth method); assay type: cell-based
From the text: as §1

Rhizopus 1052 [27] = assay: MIC determination (NCCLS broth method); assay type: cell-based
From the text: as §1

C parapsilosis 22019 [28] = assay: MIC determination (NCCLS broth method); assay type: cell-based
From the text: as §1

Fusarium 2960C = assay: MIC determination (NCCLS broth method); assay type: cell-based
From the text: as §1

Penicillium 2548 [29] = assay: MIC determination (NCCLS broth method); assay type: cell-based
From the text: as §1

Penicillium 191 [30] = assay: MIC determination (NCCLS broth method); assay type: cell-based
From the text: as §1

Question: For `C[C@@H](n1ncn(-c2ccc(N3CCN(c4ccc(Cl)cc4)CC3)cc2)c1=S)[C@](O)(Cn1cncn1)c1ccc(F)cc1F` [Compound No. 1, 2-{[1R,2R]-2-(2,4-Difluorophenyl)-2-hydroxy-1-methyl-3-(1H-1,2,4-triazole-1-yl)propyl}-4-{4-[4-(4-chlorophenyl)-1-piperizinyl]phenyl}-3-(2H,4H)-1,2,4-thiotriazolone], which “Minimum Fungicidal Concentration (MFC)” value (Fusarium 18270) is on record?
Answer: >128 µg/mL

Question: And the “Minimum Fungicidal Concentration (MFC)” value (Fusarium (Ceylon))?
Answer: 32 µg/mL

Question: What about the “Minimum Fungicidal Concentration (MFC)” value (Rhizopus (Ceylon) [1]) of the same compound?
Answer: 0.5 µg/mL

Question: What about the “Minimum Fungicidal Concentration (MFC)” value (A flavus P2 - 1045 [2]) of the same compound?
Answer: 0.03 µg/mL

Question: What about the “Minimum Fungicidal Concentration (MFC)” value (A niger P1 - 1046 [3]) of the same compound?
Answer: 0.06 µg/mL

Question: And the “Minimum Fungicidal Concentration (MFC)” value (C krusei 6258 [4])?
Answer: 0.016 µg/mL

Question: What about the “Minimum Fungicidal Concentration (MFC)” value (Penicillium H - 1048 [5]) of the same compound?
Answer: 4 µg/mL

Question: And the “Minimum Fungicidal Concentration (MFC)” value (Penicillium I - 1049 [6])?
Answer: 1 µg/mL

Question: And the “Minimum Fungicidal Concentration (MFC)” value (Penicillium 1641)?
Answer: 0.25 µg/mL

Question: What about the “Minimum Fungicidal Concentration (MFC)” value (Alternaria 1051 [7]) of the same compound?
Answer: 0.06 µg/mL

Question: What about the “Minimum Fungicidal Concentration (MFC)” value (A flavus P3 - 1041 [8]) of the same compound?
Answer: 0.06 µg/mL

Question: What about the “Minimum Fungicidal Concentration (MFC)” value (Mucor (Ceylon)) of the same compound?
Answer: 1 µg/mL

Question: And the “Minimum Fungicidal Concentration (MFC)” value (A flavus E3 - 1044 [9])?
Answer: 0.03 µg/mL

Question: What about the “Minimum Fungicidal Concentration (MFC)” value (A flavus E4 - 1042 [10]) of the same compound?
Answer: 0.03 µg/mL

Question: And the “Minimum Fungicidal Concentration (MFC)” value (A niger E5 - 1047 [11])?
Answer: 0.06 µg/mL

Question: And the “Minimum Fungicidal Concentration (MFC)” value (Fusarium 29600)?
Answer: >128 µg/mL

Question: What about the “Minimum Fungicidal Concentration (MFC)” value (Rhizopus 1052 [12]) of the same compound?
Answer: 0.03 µg/mL

Question: What about the “Minimum Fungicidal Concentration (MFC)” value (C parapsilosis 22019 [13]) of the same compound?
Answer: 0.016 µg/mL

Question: What about the “Minimum Fungicidal Concentration (MFC)” value (Penicillium 31620) of the same compound?
Answer: 0.125 µg/mL

Question: And the “Minimum Fungicidal Concentration (MFC)” value (Penicillium 2548 [14])?
Answer: 0.125 µg/mL

Question: And the “Minimum Fungicidal Concentration (MFC)” value (Penicillium 2306)?
Answer: 0.06 µg/mL

Question: And the “Minimum Fungicidal Concentration (MFC)” value (Penicillium 191 [15])?
Answer: 0.125 µg/mL

Question: And the “Minimum Inhibitory Concentration (MIC)” value (C albicans Y01.19)?
Answer: 0.03 µg/mL

Question: And the “Minimum Inhibitory Concentration (MIC)” value (C albicans A-26)?
Answer: 0.016 µg/mL

Question: What about the “Minimum Inhibitory Concentration (MIC)” value (Rhizopus (Ceylon) [16]) of the same compound?
Answer: 0.125 µg/mL

Question: What about the “Minimum Inhibitory Concentration (MIC)” value (A flavus P2 - 1045 [17]) of the same compound?
Answer: 0.016 µg/mL

Question: What about the “Minimum Inhibitory Concentration (MIC)” value (Penicillium 3162) of the same compound?
Answer: 0.03 µg/mL

Question: What about the “Minimum Inhibitory Concentration (MIC)” value (C tropicalis 750) of the same compound?
Answer: 0.008 µg/mL

Question: What about the “Minimum Inhibitory Concentration (MIC)” value (A niger P1 - 1046 [18]) of the same compound?
Answer: 0.03 µg/mL

Question: And the “Minimum Inhibitory Concentration (MIC)” value (C krusei 6258 [19])?
Answer: 0.06 µg/mL

Question: And the “Minimum Inhibitory Concentration (MIC)” value (Penicillium H - 1048 [20])?
Answer: 0.03 µg/mL

Question: What about the “Minimum Inhibitory Concentration (MIC)” value (Penicillium I - 1049 [21]) of the same compound?
Answer: 0.03 µg/mL

Question: What about the “Minimum Inhibitory Concentration (MIC)” value (Alternaria 1051 [22]) of the same compound?
Answer: 0.03 µg/mL

Question: And the “Minimum Inhibitory Concentration (MIC)” value (C krusei 766.1)?
Answer: 0.125 µg/mL

Question: What about the “Minimum Inhibitory Concentration (MIC)” value (A flavus P3 - 1041 [23]) of the same compound?
Answer: 0.008 µg/mL

Question: And the “Minimum Inhibitory Concentration (MIC)” value (A flavus E3 - 1044 [24])?
Answer: 0.016 µg/mL

Question: And the “Minimum Inhibitory Concentration (MIC)” value (A flavus E2 - 1043)?
Answer: 0.008 µg/mL

Question: What about the “Minimum Inhibitory Concentration (MIC)” value (A flavus E4 - 1042 [25]) of the same compound?
Answer: 0.008 µg/mL

Question: And the “Minimum Inhibitory Concentration (MIC)” value (Fusarium 1050)?
Answer: 1 µg/mL

Question: What about the “Minimum Inhibitory Concentration (MIC)” value (C glabrata 90030) of the same compound?
Answer: 0.06 µg/mL

Question: And the “Minimum Inhibitory Concentration (MIC)” value (A niger E5 - 1047 [26])?
Answer: 0.03 µg/mL

Question: And the “Minimum Inhibitory Concentration (MIC)” value (H capsulatum)?
Answer: 0.06 µg/mL

Question: What about the “Minimum Inhibitory Concentration (MIC)” value (Fusarium 1827C) of the same compound?
Answer: 2 µg/mL

Question: And the “Minimum Inhibitory Concentration (MIC)” value (Rhizopus 1052 [27])?
Answer: 0.0005 µg/mL

Question: And the “Minimum Inhibitory Concentration (MIC)” value (C parapsilosis 22019 [28])?
Answer: 0.004 µg/mL

Question: What about the “Minimum Inhibitory Concentration (MIC)” value (Fusarium 2960C) of the same compound?
Answer: 2 µg/mL

Question: What about the “Minimum Inhibitory Concentration (MIC)” value (Penicillium 2548 [29]) of the same compound?
Answer: 0.125 µg/mL

Question: What about the “Minimum Inhibitory Concentration (MIC)” value (Penicillium 191 [30]) of the same compound?
Answer: 0.06 µg/mL

Source: patent publication US6710049B2, “Azole compounds as anti-fungal agents” (Ranbaxy Laboratories Limited, priority 2000, dated 2004)
